Assay: gradient 5% acetonitrile 3 min, to 50% in 2 min, to 85% in 15 min, held 3 min, 100 µL/min
Details: column: Zorbax Extend-C18 2.1 x 50 mm; eluents: water / acetonitrile, 0.1% formic acid
Summary of the method: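 Values are retention times taken from adduct peaks that software picked and an analyst inspected. The pure standards were run as mixtures of ~100 molecules on HPLC linked to a quadrupole time-of-flight mass spectrometer, in positive and negative ionization mode. A Zorbax Extend-C18 column (2.1 × 50 mm, 1.8 μm) was used at 100 μL/min with water and acetonitrile, each including 0.1% formic acid.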

RP-LC retention time	Structure (SMILES)
622 s	Cn1cnc(S(=O)(=O)N2CCC(c3noc(-c4ccccn4)n3)C2)c1 (stereo unspecified)
852 s	O=C(Nc1ccc(F)c(F)c1)C1CCN(C(=O)c2ncn3c2COC(c2ccc(F)cc2)C3)CC1 (stereo unspecified)
843 s	O=C(Nc1ccccn1)C1CCN(S(=O)(=O)c2ccc(-c3noc(C4CC4)n3)cc2)CC1
848 s	Cc1nc(N2CCCC2)c2c(C(=O)Nc3ccc(Cl)cc3)c(C)oc2n1
713 s	COc1ccc(NC(=O)Cn2cc(C(=O)N3CCCCC3)c(=O)c3ccc(C)nc32)cc1
847 s	COc1ccc(-c2cn3c(CC(=O)Nc4cc(Cl)ccc4OC)csc3n2)cc1
542 s	O=C1C(N2CCN(S(=O)(=O)c3ccc(F)cc3F)CC2)CCN1Cc1cccnc1 (stereo unspecified)
810 s	Cc1oc(-c2ccc(Cl)cc2)nc1CN1CCCC(C(=O)NC2CCCCCC2)C1 (stereo unspecified)
610 s	CN1CCC(NC(=O)c2ccc3c(c2)N(S(=O)(=O)c2ccccc2)CC3)CC1
742 s	CN(CCc1noc(-c2ccc(C(=O)N3CCCCC3)cc2)n1)C(=O)C1CC1
917 s	CCC(C)N(CC(=O)N(Cc1ccco1)CC1CCCO1)C(=O)c1ccc(C)cc1 (stereo unspecified)
1180 s	CCOc1ccc2nc(N3CCCC(C(=O)N4CCC(Cc5ccccc5)CC4)C3)sc2c1 (stereo unspecified)
753 s	COc1cccc(CCC(=O)N2C[C@@H]3C[C@H]2C[C@@H]3NC(=O)c2cccs2)c1
799 s	O=C(Cc1ccc(Cl)cc1)NC1CCN(c2nnc3ccc(C(F)(F)F)cn23)CC1
810 s	Cc1cccc(CCNC(=O)Cc2csc3nc(-c4ccccc4)cn23)c1
864 s	COc1ccc(F)cc1S(=O)(=O)N(C)CC1(C)CCOCC1
946 s	CCc1ccc(NC(=O)Cc2nc(C)c(C(=O)NCc3ccc(F)cc3)s2)cc1
864 s	Cc1ccc(CNC(=O)C2(C)CN(S(C)(=O)=O)CC(=O)N2c2ccc(C)cc2C)cc1 (stereo unspecified)

RP-LC retention time	Structure (SMILES)
1150 s	COc1ccc(CCC(=O)Nc2nc(-c3cccc(Br)c3)cs2)cc1
799 s	O=C(Nc1cccc(F)c1)C1CC(=O)N(CCc2c[nH]c3ccc(F)cc23)C1 (stereo unspecified)
1320 s	Cc1ccc(NS(=O)(=O)c2cc(-c3nc(C(C)(C)C)cs3)cs2)c(Cl)c1
683 s	O=C(/C=C\c1ccccc1)Nc1ccc(-c2cn3cccnc3n2)cc1
603 s	CCc1ccc(Nc2nc(C(=O)NCCc3cnc[nH]3)nc3ccccc23)cc1
916 s	CCC(C)CNCC(=O)N1CCc2sccc2C1COc1cccc(C)c1 (stereo unspecified)
639 s	O=C(NCc1ccc(F)cc1)Nc1c(-c2ccccc2)nc2ccccn12
718 s	CCOC(=O)c1cc(S(=O)(=O)N2CCCC2C(=O)Nc2ccc(NC(C)=O)cc2)cn1C (stereo unspecified)
799 s	O=C(CSc1cn(CC(=O)N2CCCCCC2)c2ccccc12)NCC1CCCO1 (stereo unspecified)
763 s	COc1ccc(N2CCN(C(=O)C3CCCN(C(=O)c4[nH]c(C)cc4C)C3)CC2)cc1 (stereo unspecified)
756 s	COc1ccc(C(=O)NC2CCN(c3ccc(F)cc3)C2=O)cc1 (stereo unspecified)
743 s	CCC(=O)N1CCc2cc(C(=O)NCc3cccs3)ccc21
679 s	COCC(C)NC(=O)c1ccc2c(c1)CCCN2S(C)(=O)=O (stereo unspecified)
918 s	CCCS(=O)(=O)NCc1ccc2c(c1)CCN2C(=O)c1ccc(Cl)cc1
651 s	Cc1ccc2[nH]c(=O)c(CCC(=O)O)cc2c1
707 s	Cc1nc(-c2cc(S(=O)(=O)N3CCC(C(=O)NC4CCCCCC4)CC3)c(C)s2)no1
617 s	CC1CCCCN1CCNC(=O)c1cc(S(=O)(=O)N2CCCC2)ccc1Cl (stereo unspecified)
867 s	Cc1cc(C2CCCN2C(=O)Nc2ccccc2Br)on1 (stereo unspecified)

— the METLIN SMRT retention time set (Domingo-Almenara et al. 2019)
